Consider 12 molecules from ChEMBL document CHEMBL1201862, “PubChem BioAssay data set” (2004).

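In this assay, cells in 96-well plates receive the compound at five concentrations for 48 hours. Endpoints are linearly interpolated between the surrounding concentrations. Abbreviation: GI50, concentration required for 50% inhibition of growth.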 Active and inactive are the calls of the source. No stated cut-off is given here; in the data, active = GI50 up to about 1.1 µM and inactive = higher.

Test systems include 786-0; A549; IGROV-1; K562; LOX IMVI; M14; MOLT-4; NCI-H23; NCI-H522; RPMI-8226; SF-295; SN12C; SNB-19; SW-620; TK-10; U-251; UACC-257; SR.
Holding throughout (assay): NCI-60 cell line screen, 48 h

`CNC(=O)NCCCCC(NC(C)=O)C(=O)NCc1ccccc1` (stereo not drawn): the GI50 in the test on 786-0 was > 100 µM (inactive); in the test on A549, > 100 µM (inactive); in the test on IGROV-1, > 100 µM (inactive); in the test with K562, > 10 µM (inactive); in the test with LOX IMVI, > 100 µM (inactive); in the test on M14 it was > 100 µM (inactive). In addition, the GI50 in the test with MOLT-4, in the test on NCI-H23, in the test with NCI-H522, in the test on RPMI-8226, in the test on SF-295 and in the test on SN12C was > 100 µM (inactive) throughout. Moreover, the GI50 in the test with SNB-19, in the test on SW-620, in the test with TK-10, with U-251 and with UACC-257 was > 100 µM (inactive) each time.
As for `CC1CC2(CCC1OCc1ccccc1)OCCO2` (stereo not drawn), the GI50 with 786-0, in the test with A549, with IGROV-1, in the test on K562, in the test on LOX IMVI and in the test on M14 was > 100 µM (inactive) each time. Further, the GI50 in the test on MOLT-4, in the test with NCI-H23, in the test on NCI-H522, with RPMI-8226, with SF-295 and in the test with SN12C was > 100 µM (inactive) throughout. Moreover, the GI50 with SNB-19, in the test with SW-620, in the test on TK-10, in the test on U-251 and in the test on UACC-257 was > 100 µM (inactive) in each case.
Take `CCOC(=O)C1=C(C)CC2C(=O)OC(=O)C2C1(C)C` (stereo not drawn): the GI50 in the test with 786-0, in the test with A549, in the test on IGROV-1, in the test with K562, in the test on M14 and with MOLT-4 was > 100 µM (inactive) throughout. Further, the GI50 with NCI-H23, in the test on NCI-H522, in the test on RPMI-8226, in the test with SF-295, in the test on SN12C and with SNB-19 was > 100 µM (inactive) each time. Moreover, the GI50 with SR, in the test on SW-620, with TK-10, with U-251 and in the test on UACC-257 was > 100 µM (inactive) each time.
In the case of `CC/C(C)=C1\CCC(CN(C)C)C1=O` (stereo not drawn), the GI50 is 15.8 µM (inactive) in the test on 786-0; 22.9 µM (inactive) with A549; 20 µM (inactive) in the test on IGROV-1; 20 µM (inactive) with K562; 20.6 µM (inactive) in the test with LOX IMVI; 19.5 µM (inactive) in the test on M14. Also, the GI50 with MOLT-4 was 26.7 µM (inactive); in the test with NCI-H23, 21.2 µM (inactive); in the test on RPMI-8226, 2.82 µM (inactive); with SF-295 it was > 100 µM (inactive); in the test on SN12C, 20.1 µM (inactive); with SNB-19, > 100 µM (inactive). For the same molecule, the GI50 in the test with SR is 19.3 µM (inactive); with SW-620, 22.9 µM (inactive); in the test on TK-10, 17.3 µM (inactive); with UACC-257, 17.3 µM (inactive).
With `COC(=O)C1Cc2c([nH]c3ccccc23)C(C2CCCCC2)N1` (stereo not drawn), the GI50 in the test on 786-0 is > 100 µM (inactive); in the test on A549, > 100 µM (inactive); in the test on IGROV-1 it was 83.9 µM (inactive); in the test with K562, > 100 µM (inactive); with LOX IMVI, > 100 µM (inactive); in the test on M14, > 100 µM (inactive). The GI50 in the test with MOLT-4, in the test with NCI-H23, in the test with NCI-H522, in the test with SF-295, in the test on SN12C and in the test with SNB-19 was > 100 µM (inactive) each time. Moreover, the GI50 in the test on SR, in the test with SW-620, in the test with TK-10, in the test with U-251 and with UACC-257 was > 100 µM (inactive) in each case.
As for `CC(=O)O[C@H]1CCC2[C@@H]3CCC4Nc5[nH]ncc5C[C@]4(C)C3CC[C@@]21C` (stereo partly drawn), the GI50 is > 100 µM (inactive) in the test with 786-0; > 100 µM (inactive) in the test with A549; > 100 µM (inactive) with IGROV-1; 36.3 µM (inactive) in the test with K562; 0.405 µM (active) with LOX IMVI; 21.4 µM (inactive) with M14. For the same molecule, the GI50 in the test on MOLT-4 was 22.9 µM (inactive); in the test with NCI-H23 it was 61.2 µM (inactive); in the test with NCI-H522, 21.4 µM (inactive); in the test on RPMI-8226, 31.9 µM (inactive); in the test on SF-295, > 100 µM (inactive); in the test on SN12C, > 100 µM (inactive). Further, the GI50 in the test on SNB-19 is 26.4 µM (inactive); with SW-620, 36.8 µM (inactive); in the test on TK-10 it was 74.6 µM (inactive); with U-251 it was 80.2 µM (inactive); in the test on UACC-257, 22.4 µM (inactive).
For the molecule `CN(C)C(=S)/N=c1\ssc(=S)n1C1CCCCC1`, the GI50 was 17.1 µM (inactive) in the test on 786-0; 22.8 µM (inactive) with A549; 98.9 µM (inactive) in the test on IGROV-1; 16.9 µM (inactive) in the test on K562; 14.7 µM (inactive) with M14; 18.2 µM (inactive) in the test on MOLT-4. In addition, the GI50 in the test with NCI-H23 is 44 µM (inactive); in the test on NCI-H522, 13.1 µM (inactive); in the test on SF-295, 60.5 µM (inactive); in the test with SN12C it was 29.4 µM (inactive); with SNB-19, 57.7 µM (inactive); in the test with SR, 20.5 µM (inactive). The GI50 in the test on SW-620 is 13.7 µM (inactive); in the test with TK-10 it was > 100 µM (inactive); in the test on U-251, 17 µM (inactive); in the test with UACC-257 it was 22.4 µM (inactive).
As to `C=CCN1COc2c(cc3c4c(cccc24)C(=O)O3)C1`, the GI50 was 20.5 µM (inactive) in the test with 786-0; > 100 µM (inactive) in the test with A549; > 100 µM (inactive) in the test on IGROV-1; 15.5 µM (inactive) in the test on K562; > 10 µM (inactive) in the test on LOX IMVI; 22.9 µM (inactive) in the test on M14. Moreover, the GI50 is 27 µM (inactive) in the test on MOLT-4; 21.4 µM (inactive) with NCI-H23; 14.1 µM (inactive) in the test on NCI-H522; 33.6 µM (inactive) with RPMI-8226; 35.1 µM (inactive) with SF-295; 21 µM (inactive) with SN12C. Also, the GI50 was > 100 µM (inactive) in the test with SNB-19; 25.4 µM (inactive) in the test on SW-620; 21.7 µM (inactive) with TK-10; > 100 µM (inactive) in the test with U-251; 26.4 µM (inactive) with UACC-257.
For `CC1CC2C(=O)NC(=O)C2c2[nH]c3ccccc3c21` (stereo not drawn), the GI50 was > 100 µM (inactive) with 786-0; > 100 µM (inactive) in the test on A549; > 100 µM (inactive) with IGROV-1; 91.2 µM (inactive) in the test on K562; > 100 µM (inactive) with LOX IMVI; > 100 µM (inactive) in the test with M14. Also, the GI50 with MOLT-4 was > 100 µM (inactive); in the test with NCI-H23, > 100 µM (inactive); with NCI-H522 it was 51.4 µM (inactive); in the test with RPMI-8226 it was > 100 µM (inactive); with SF-295 it was > 100 µM (inactive); in the test on SN12C it was 78.7 µM (inactive). Moreover, the GI50 in the test with SR, in the test with SW-620 and with U-251 was > 100 µM (inactive) throughout.
As to `Cc1nc2c(n1CCO)C(=O)c1ccccc1C2=O`, the GI50 is 46.9 µM (inactive) in the test on 786-0; 29.4 µM (inactive) with A549; 20.3 µM (inactive) with IGROV-1; 25.6 µM (inactive) in the test with K562; 23.4 µM (inactive) in the test with LOX IMVI; 21.4 µM (inactive) in the test on M14. Besides, the GI50 is 28.9 µM (inactive) in the test on MOLT-4; 15 µM (inactive) in the test with NCI-H23; 14.5 µM (inactive) in the test with NCI-H522; 48.4 µM (inactive) in the test with SF-295; 31.4 µM (inactive) with SN12C; 43 µM (inactive) with SNB-19. The GI50 is 26.4 µM (inactive) in the test with SR; 32.8 µM (inactive) with SW-620; > 100 µM (inactive) in the test with TK-10; 26.5 µM (inactive) in the test with U-251; 16.6 µM (inactive) with UACC-257.
Consider `CSc1nc(Cl)c(Br)c(Sc2nc(N)nc3nc[nH]c23)n1`, for which the GI50 in the test on 786-0 was 3.27 µM (inactive); in the test with A549, 19.5 µM (inactive); in the test with IGROV-1, 13.5 µM (inactive); in the test with K562, 3.34 µM (inactive); with M14, 4.56 µM (inactive); with MOLT-4 it was 4.2 µM (inactive). Further, the GI50 with NCI-H23 is 10.4 µM (inactive); in the test with NCI-H522, 1.63 µM (inactive); in the test on RPMI-8226, 2.25 µM (inactive); in the test on SF-295, 4.72 µM (inactive); in the test with SNB-19, 16.6 µM (inactive); with SR it was 3.48 µM (inactive). The GI50 is 7.43 µM (inactive) in the test on SW-620, 6.79 µM (inactive) in the test on TK-10, 4.48 µM (inactive) in the test with U-251 and 13.9 µM (inactive) in the test with UACC-257.
For `CC(=O)OCC(OC(C)=O)C(OC(C)=O)C(OC(C)=O)C(=O)CNn1c(-c2ccccc2Cl)nc2ccccc2c1=O` (stereo not drawn), the GI50 in the test with 786-0, in the test on A549, in the test with K562, with LOX IMVI, in the test with M14 and in the test on MOLT-4 was > 100 µM (inactive) each time. Besides, the GI50 with NCI-H23 is > 100 µM (inactive); with NCI-H522, > 100 µM (inactive); in the test with RPMI-8226 it was 76 µM (inactive); in the test on SF-295 it was > 100 µM (inactive); in the test with SN12C, > 100 µM (inactive); in the test with SNB-19, > 100 µM (inactive). Further, the GI50 with SR is 61.9 µM (inactive); in the test on SW-620, > 100 µM (inactive); in the test on U-251, > 100 µM (inactive); in the test with UACC-257 it was > 100 µM (inactive).
